According to PubChem BioAssay AID2202555 (NIEHS Division of Translational Toxicology (DTT)):
Inconclusive results are not listed. The source made the active and inactive calls. The rule behind the calls is not given here.

tested on: rat and mouse 2-year carcinogenicity bioassay, tumor evidence; experiment: Consolidated carcinogenicity assay summary data; settings: Route (rodents): Dosed feed
Source text: Cancer Evaluation Criteria
The National Toxicology Program describes the results of individual experiments on a chemical agent and notes the strength of the evidence for conclusions regarding each study. […] Other organizations, such as the International Agency for Research on Cancer, assign a strength of evidence for conclusions based on an examination of all available evidence, including animal studies such as those conducted by the NTP, epidemiologic studies, and estimates of exposure. Thus, the actual determination of risk to humans from chemicals found to be carcinogenic in laboratory animals requires a wider analysis that extends beyond the purview of these studies.
Five categories of evidence of carcinogenic activity are used in the Technical Report series to summarize the strength of evidence observed in each experiment: two categories for positive results (clear evidence and some evidence); one category for uncertain findings (equivocal evidence); one category for no observable effects (no evidence); and one category for experiments that cannot be evaluated because of major flaws (inadequate study). These categories of interpretative conclusions were first adopted in June 1983 and then revised on March 1986 for use in the Technical Report series to incorporate more specifically the concept of actual weight of evidence of carcinogenic activity. For each separate experiment (male rats, female rats, male mice, female mice), one of the following five categories is selected to describe the findings. These categories refer to the strength of the experimental evidence and not to potency or mechanism.
For studies showing multiple chemical-related neoplastic effects that if considered individually would be assigned to different levels of evidence categories, the following convention has been adopted to convey completely the study results. In a study with clear evidence of carcinogenic activity at some tissue sites, other responses that alone might be deemed some evidence are indicated as "were also related" to chemical exposure. In studies with clear or some evidence of carcinogenic activity, other responses that alone might be termed equivocal evidence are indicated as "may have been" related to chemical exposure.
When a conclusion statement for a particular experiment is selected, consideration must be given to key factors that would extend the actual boundary of an individual category of evidence. Such consideration should allow for incorporation of scientific experience and current understanding of long-term carcinogenesis studies in laboratory animals, especially for those evaluations that may be on the borderline between two adjacent levels. These considerations should include:
- adequacy of the experimental design and conduct;
- occurrence of common versus uncommon neoplasia;
- progression (or lack thereof) from benign to malignant neoplasia as well as from preneoplastic to neoplastic lesions;
- some benign neoplasms have the capacity to regress but others (of the same morphologic type) progress. At present, it is impossible to identify the difference. Therefore, where progression is known to be a possibility, the most prudent course is to assume that benign neoplasms of those types have the potential to become malignant;
- combining benign and malignant tumor incidences known or thought to represent stages of progression in the same organ or tissue;
- latency in tumor induction;
- multiplicity in site -specific neoplasia;
- supporting information from proliferative lesions (hyperplasia) in the same site of neoplasia or in other experiments (same lesion in another sex or species);
- presence or absence of dose relationships;
- statistical significance of the observed tumor increase;
- concurrent control tumor incidence as well as the historical control rate and variability for a specific neoplasm;
- survival-adjusted analyses and false positive or false negative concerns;
- structure-activity correlations; and
[…]

Row | Compound | carcinogen call
1 | Nc1ccc2c(c1)C(=O)c1ccccc1C2=O | active; clear evidence
2 | O=C1C2(Cl)C3(Cl)C4(Cl)C(Cl)(Cl)C5(Cl)C3(Cl)C1(Cl)C5(Cl)C24Cl (stereo unspecified) | active; clear evidence
3 | Nc1ccc(Cl)c(N)c1 | active; clear evidence
4 | CCCN(CCC)c1c([N+](=O)[O-])cc(C(F)(F)F)cc1[N+](=O)[O-] | active; no evidence
5 | CCNC(=O)Nc1ncc([N+](=O)[O-])s1 | active; no evidence
6 | Cc1ccc2c(c1N)C(=O)c1ccccc1C2=O | active; clear evidence
7 | O=C(O)C1C(C(=O)O)C2(Cl)C(Cl)=C(Cl)C1(Cl)C2(Cl)Cl (stereo unspecified) | active; clear evidence
8 | Nc1ccc(Cl)cc1N | active; clear evidence
9 | O=Nc1ccc(Nc2ccccc2)cc1 | active; clear evidence
10 | CCCC[C@@H](C)[C@@H](OC(=O)C[C@@H](CC(=O)O)C(=O)O)[C@H](C[C@@H](C)C[C@H](O)CCCC[C@@H](O)C[C@H](O)[C@H](C)N)OC(=O)C[C@@H](CC(=O)O)C(=O)O | active; clear evidence
11 | Nc1ccc(N)c2c1C(=O)c1c(N)ccc(N)c1C2=O | active; clear evidence
12 | CN(C)C(=O)Nc1ccc(Cl)cc1 | active; clear evidence
13 | O=NN(c1ccccc1)c1ccccc1 | active; clear evidence
14 | Cc1ccc(N=Nc2c(O)ccc3ccccc23)c([N+](=O)[O-])c1 | active; some evidence
15 | C/C=C(/C)C(=O)O[C@H]1CCN2CC=C(COC(=O)[C@@](O)([C@@H](C)OC)C(C)(C)O)[C@H]12 | active; clear evidence
16 | ClC1=C(Cl)C2(Cl)C3C(Cl)C=CC3C1(Cl)C2(Cl)Cl (stereo unspecified) | active; no evidence
17 | Nc1cc(Cl)cc(C(=O)O)c1Cl | active; no evidence

Row | Compound | carcinogen call
18 | O=Nc1ccc(NO)cc1 | active; no evidence
19 | NC(=O)NN=Cc1ccc([N+](=O)[O-])o1 | active; equivocal evidence
20 | Nc1ccccc1 | active; clear evidence
21 | Oc1c(Cl)c(Cl)c(Cl)c(Cl)c1Cl | active; some evidence
22 | COP(=O)(OC)O/C(=C\Cl)c1cc(Cl)c(Cl)cc1Cl | active; no evidence
23 | Cc1ccc([N+](=O)[O-])cc1N | active; no evidence
24 | O=C1Nc2ccc(Cl)cc2C(c2ccccc2)=NC1O (stereo unspecified) | active; equivocal evidence
25 | Nc1nc(N)nc(N)n1 | active; clear evidence
26 | CN(C)NC(=O)CCC(=O)O | active; no evidence
27 | Nc1ccc(N=Nc2ccc(-c3ccc(N=Nc4c(S(=O)(=O)O)cc5cc(S(=O)(=O)O)c(N=Nc6ccccc6)c(O)c5c4N)cc3)cc2)c(N)c1 | active; clear evidence
28 | Nc1cc(Cl)c(N)c(Cl)c1 | active; no evidence
29 | Nc1cc(S(=O)(=O)O)cc2cc(S(=O)(=O)O)c(N=Nc3ccc(-c4ccc(N=Nc5c(S(=O)(=O)O)cc6cc(S(=O)(=O)O)cc(N)c6c5O)cc4)cc3)c(O)c12 | active; clear evidence
30 | ClC1(Cl)C2(Cl)C3(Cl)C4(Cl)C(Cl)(Cl)C5(Cl)C3(Cl)C1(Cl)C5(Cl)C24Cl (stereo unspecified) | active; clear evidence
31 | Cc1ncc[nH]1 | active; some evidence
32 | CNC(=S)N(C)C | active; no evidence
33 | Cc1ccc(Cl)cc1N | active; no evidence
34 | Nc1c(Br)cc(Br)c2c1C(=O)c1ccccc1C2=O | active; clear evidence

same assay, conditions: Route (rodents): Dosed water

Row | Compound | carcinogen call
35 | [O]=[Cr](=[O])([OH])[O][Cr](=[O])(=[O])[OH] | active; clear evidence
36 | Cc1cccnc1 | active; no evidence
37 | O=C(O)C(Br)Br | active; some evidence
38 | C=CC(N)=O | active; clear evidence
39 | COc1cc(-c2ccc(N=Nc3c(S(=O)(=O)O)cc4cc(S(=O)(=O)O)cc(N)c4c3O)c(OC)c2)ccc1N=Nc1c(S(=O)(=O)O)cc2cc(S(=O)(=O)O)cc(N)c2c1O | active; clear evidence

same assay, conditions: Route (rodents): Gavage

Row | Compound | carcinogen call
40 | CC(C)=CCl | active; clear evidence
41 | CC(CCl)OC(C)CCl (stereo unspecified) | active; no evidence
42 | S=c1[nH]c2ccccc2s1 | active; some evidence
43 | OCc1c[nH]c2ccccc12 | active; no evidence
44 | Nc1ccc([N+](=O)[O-])cc1O | active; some evidence
45 | ClCC(Cl)(Cl)Cl | active; equivocal evidence
46 | ClCc1cccnc1 | active; clear evidence
47 | c1ccc2occc2c1 | active; no evidence
48 | COc1c2occc2cc2ccc(=O)oc12 | active; clear evidence
49 | NC=O | active; no evidence
50 | COP(=O)(OC)OC | active; clear evidence
51 | C=CCN=C=S | active; clear evidence
52 | C[C@]12CCC(=O)C=C1CC[C@@H]1[C@@H]2CC[C@]2(C)C(=O)CC[C@@H]12 | active; equivocal evidence
53 | CC=CC=CC=O | active; clear evidence
54 | CC=Cc1ccc(O)c(OC)c1 | active; equivocal evidence
55 | O=C(O)c1cc(N=Nc2ccc(S(=O)(=O)Nc3ccccn3)cc2)ccc1O | active; some evidence
56 | COc1ccc(N)c(C)c1 | active; clear evidence
57 | C[C@@H]1Cc2c(Cl)cc(C(=O)N[C@@H](Cc3ccccc3)C(=O)O)c(O)c2C(=O)O1 | active; clear evidence
58 | C=CC(=C)CCC=C(C)C | active; clear evidence
59 | Clc1ccc(-c2cc(Cl)c(Cl)c(Cl)c2)cc1Cl | active
60 | CC1=CC(=O)CC(C)(C)C1 | active; some evidence
61 | c1ccoc1 | active; clear evidence
62 | CN(C)c1ccccc1 | active; some evidence
63 | C=CC(=O)NCO | active; no evidence
64 | c1ccccc1 | active; clear evidence

same assay, conditions: Route (rodents): Gavage; Second Route: Dosed Water

Row | Compound | carcinogen call
65 | ClC(Cl)Br | active; clear evidence

same assay, conditions: Route (rodents): Gavage; Second Route: Topical

Row | Compound | carcinogen call
66 | S=[Se] | active; clear evidence

same assay, conditions: Route (rodents): Inhalation

Row | Compound | carcinogen call
67 | C=CC=C | active
68 | CCBr | active; some evidence
69 | O=[O+][O-] | active; no evidence
70 | CC(C)CON=O | active; clear evidence
71 | CCCCOCCO | active; no evidence
72 | CCCBr | active; some evidence
73 | C=C(C)c1ccccc1 | active; some evidence
74 | [O]=[Sb][O][Sb]=[O] | active; some evidence
75 | C1CO1 | active
76 | CCc1ccccc1 | active; clear evidence

same assay, conditions: Route (rodents): Inhalation; Second Route: Gavage

Row | Compound | carcinogen call
77 | C=C(Cl)Cl | active; clear evidence

same assay, conditions: Route (rodents): Interperitoneal

Row | Compound | carcinogen call
78 | S=P(N1CC1)(N1CC1)N1CC1 | active; clear evidence
79 | COc1cc2c(c3c1c(=O)c1ccccc1n3C)C=CC(C)(C)O2 | active; clear evidence
80 | O=P1(NCCCl)OCCCN1CCCl (stereo unspecified) | active; no evidence

same assay, conditions: Route (rodents): Topical

Row | Compound | carcinogen call
81 | OCCN(CCO)CCO | active; equivocal evidence
82 | CCCCCCCCCCCC(=O)N(CCO)CCO | active; no evidence
83 | C=CC(=O)OCC(CC)(COC(=O)C=C)COC(=O)C=C | active; equivocal evidence
84 | Oc1cccc(O)c1O | active; no evidence
85 | C1CC2OC2CC1C1CO1 (stereo unspecified) | active; clear evidence
86 | OCC(Br)CBr (stereo unspecified) | active; clear evidence
